Experimental data taken from patent US20250115595A1, “INHIBITORS OF HYPOXIA-INDUCIBLE FACTORS” (The Johns Hopkins University, priority 2021, published 2025).

How the values were obtained:
[1] = test system: HIF target genes; test: RT-qPCR of HIF target gene expression in Hep3B cells; assay type: cell-based, human
Method: Based on hit compound 11-88, a number of analogs were prepared in which either halogen substitutions to the indole groups were altered or the central thiazole was replaced by imidazole, isoxazole, oxadiazole, oxazole, pyrazinone, pyridazine, pyrazine, pyrazole, pyridine, thiadiazole, triazine, or triazole. […] The bis-bromoindole thiazole 32-134D and the bis-indole thiadiazole 33-063 (FIGS. 1B and 1C) were further characterized with respect to endogenous HIF target gene expression in Hep3B cells. […] For comparison, we tested the effect of PT2385, which inhibited EPO, NDRG1, ANGPTL4, and VEGFA expression but had no effect on CA9, which is consistent with its HIF-2-selective mechanism of action (Wallace E M et al., Cancer Res. 2016; 76(18):5491-5500). None of the compounds had any effect on RPL13A expression, which is neither hypoxia-induced nor HIF-regulated (FIG. 3).
Human Hep3B and mouse Hepa1-6 cells were purchased from ATCC and grown in high-glucose (4.5 mg/ml) Dulbecco's modified Eagle's medium supplemented with 10% (vol/vol) fetal bovine serum and […] at 37° C. in a 5% CO2/95% air incubator (20% O2). Human cell line identity was authenticated by analysis of short tandem repeats, and all cell lines were maintained mycoplasma free, using PCR-based assays conducted at the Johns Hopkins University Genetic Resources Core Facility. Cells were subjected to hypoxia in a controlled atmosphere chamber (PLAS Labs) with ambient gas mixture containing 1% O2 and 5% CO2.
RNA was extracted using TRIzol Reagent (ThermoFisher). Quantitative Real-time PCR was conducted using SYBR Green PCR Master Mix (BioRad) and reactions were run using the BioRad thermal cycler (BioRad). The mRNA expression of target genes was normalized to the expression of 18S rRNA and the fold change (FC) was calculated based on the threshold cycle (Ct) as
FC=2^−Δ(ΔCt) where ΔCt=Cttarget gene−Ct18S rRNA and Δ(ΔCt)=ΔCttreatment−ΔCtcontrol.

[2] = test system: Hepa1-6 HCC tumors; test: Hepa1-6 tumor growth in syngeneic C57L mice; assay type: in vivo, mouse; conditions: 32-134D 40 mg/kg/d intraperitoneal
Method: To test whether 32-134D inhibits HCC growth in an immunocompetent mouse model, Hepa1-6 HCC cells were injected into the flank of syngeneic C57L mice (Darlington G J et al., J Natl Cancer Inst. 1980; 64(4):809-819). When tumors became palpable (treatment day 1), mice received daily intraperitoneal injections of 32-134D (40 mg/kg/d) versus vehicle control, or anti-Pd1 antibody versus IgG2a isotype control ([…] on days 1, 4, 7, 10, and 16), or both 32-134D and anti-Pd1. Tumors grew very rapidly in all mice treated with vehicle or IgG2a, necessitating euthanasia on or before day 24 (FIG. 9). Tumors regressed in 5 out of 12 mice treated with anti-Pd1, but two tumors recurred after the last antibody treatment (on day 16) for a tumor eradication rate of only 25%. […] Thus, addition of 32-134D increased the percentage of mice with a durable complete response to anti-Pd1 immune checkpoint blockade from 25% to 67%.
Protocols were approved by the Johns Hopkins University Animal Care and Use Committee and used in accordance with the NIH Guide for the Care and Use of Laboratory Animals (National Research Council, 2011). Female nude mice (NCI Athymic NCr-nu/nu) and male C57L/J mice were purchased from Charles River and The Jackson Laboratory, respectively. Hep3B (8×106) and Hepa1-6 (1×107) cells were implanted subcutaneously in 6- to 8-week-old mice, and tumor volume was calculated: V=abc×0.52. […]

[3] = test system: OIR mice; test: OIR mouse model, intraperitoneal dosing; assay type: in vivo
Method: The ability of 32-143D to inhibit ischemia-induced retinal neovascularization was evaluated using the oxygen-induce retinopathy (OIR) model for retinal neovascularization in ischemic retinal diseases, such as retinopathy of prematurity, proliferative diabetic retinopathy, ischemic retinal vein occlusions, or sickle cell retinopathy. Postnatal day 7 (P7) newborn C57BL/6 pups were exposed to hyperoxia (75% O2) for 5 consecutive days before being returned to room air at P12. Beginning at P13, pups were treated with […] IP injections with 32-134D at 20 mg/kg or with vehicle control. 24 hours after the fifth IP injection, at P17, retinal flat mounts were stained with isolectin-B4 to examine the development of retinal neovascularization.
OIR mouse model: OIR experiments were performed as previously described (M. Rodrigues et al., 2013, Diabetes 62, 3863-3873). Briefly, C57BL/6 mice were placed in 75% O2 on P7. On P12, the mice were returned to room air and administered either by IP injection (digoxin and test compound) or by intravitreal injection. Mice with body weight less than 6 g at P17 were excluded from analysis. The data were collected from both males and females and the results combined, as there was no apparent difference between sexes. Representative images for selected time points from a minimum of three independent experiments are shown. Data from 3-8 pups were obtained at each time point.

[4] = test system: HIF-1α and HIF-2α; test: HIF accumulation in hypoxic HUVECs; assay type: cell-based, human; conditions: 10 μM, 4 hours
Text: Vascular endothelial cells also secrete angiogenic mediators that contribute to the progression of diabetic eye disease (Y. Qin et al., Sci Adv 8, eabm1896 (2022)). Exposure of human umbilical vein endothelial cells (HUVECs) to hypoxia induced HIF-1α and HIF-2α protein accumulation, which was inhibited by 32-134D (FIG. 30). […] Of note, ANGPT2 and VE-PTP, two emerging targets for the treatment of diabetic eye disease, are both expressed specifically by vascular cells (G. Fachinger, et al., Oncogene 18, 5948-5953 (1999); P. C. Maisonpierre et al., Science 277, 55-60 (1997)).
Cells culture and reagents: MIO-M1 cells were a gift from Dr. Astrid Limb (University College London, Institute of Ophthalmology, London, United Kingdom). MIO-M1 and HUVEC cells were cultured in DMEM with 10% (vol/vol) FBS (Quality Biological) and 1% penicillin/streptomycin (Cellgro). Hypoxia chambers were used to expose cells. Evans Blue (E2129) was purchased from Sigma-Aldrich.
Immunoblot assays and ELISAs: Cell, neurosensory retina, and D120 retinal organoid lysates were subjected to 4-15% gradient SDS/PAGE (Invitrogen). Immunoblot assays were performed as previously described (X. Xin et al., 2013, Proc Natl Acad Sci USA 110, E3425-3434).

[5] = daily IP injections 20 mg/kg from P13, P17

## Brc1ccc2c(-c3csc(-c4c[nH]c5c(Br)cccc45)n3)c[nH]c2c1 [Compound 32-134D, 4-(6-bromo-1H-indol-3-yl)-2-(7-bromo-1H-indol-3-yl)thiazole]
[1]
  hypoxia-induced expression of HIF target genes CA9, ANGPTL4, VEGFA, NDRG1 and EPO: inhibited
[2]
  mice with tumor eradication: 4 of 12
  tumor growth: marked inhibition of tumor growth in all mice
[3]; [5]
  area of avascular retina: not significantly different
  retinal neovascularization: significant decrease in neovascularization
[3]; five consecutive (P12-P16) IP injections, 20 mg/kg, P17
  mRNA expression of key HIF-regulated vasoactive mediators: marked reduction
[3]; single IP injection, as little as 20 mg/kg, P13 and P14
  HIF-1α and HIF-2α protein accumulation in retina: reduction
[4]
  hypoxia-induced HIF-1α and HIF-2α protein accumulation: inhibited
